Paper PMC8943889, “Synthetic studies with the brevicidine and laterocidine lipopeptide antibiotics including analogues with enhanced properties and in vivo efficacy” (Chemical Science, 2022)
≈ marks a conversion by molar mass, not a printed value. Where two headings read alike, the source gives them in different places. Positions of bridges follow the written chain, without caps; N, C: chain ends. Non-standard residues stand in square brackets, D forms with d. Residues, ends and D or L forms follow the SMILES beside them. ξ: configuration not given here. *: point of attachment. Hexanoyl(4ξ-Me) = CCC(C)CCC(=O)*; dOrn = NCCC[C@@H](N)C(=O)O; Orn = NCCC[C@H](N)C(=O)O

Experiments:
K. pneumoniae ATCC 13883 = format: cell-based
Description: (§1) Minimum inhibitory concentrations (MICs) were determined by broth microdilution according to CLSI guidelines in triplicate. Blood agar plates were inoculated with glycerol stocks of E. coli ATCC 25922, E. coli MCR-1 (clinical isolate from Utrecht Medical Centre, NL), E. coli EQAS MCR-2 (clinical isolate from Wageningen University and Research, NL), K. pneumoniae ATCC 11228, K. pneumoniae ATCC 13883, K. pneumonia 2048 (clnical isolate from Vrije Universiteit Amsterdam Medical Centre, NL), K. pneumonia JS-123 (clinical isolate from Utrecht Medical […]
(§2) (clinical isolate from Rijksinstituut voor Volksgezondheid en Milieu, NL), A. baumannii MDR (clinical isolate from Vrije Universiteit Amsterdam Medical Centre, NL), P. aeruginosa ATCC 27853, P. aeruginosa PAO1, P. aeruginosa NRZ-03961 (Reference strain from Das Nationale Referenzzentrum für gramnegative Krankenhauserreger, DE), P. aeruginosa M-120 (clinical isolate from Leiden University Medical Centre, NL) and S. aureus USA300 (clinical isolate from Texas Children's Hospital, USA). E. coli 25922 MCR1 was grown on LB agar supplemented with kanamycin. The inoculated agar plates were then incubated for 16 h at 37°C . Individually grown colonies were subsequently used to inoculate 3 mL aliquots of TSB that were then incubated at 37°C with shaking at 220 rpm. In parallel, the lipopeptide antibiotics to be assessed were serially diluted with Mueller-Hinton broth (MHB) in polypropylene 96-well plates (50 µL in each well).
(§3) Once the OD600 of the bacterial suspensions reached 0.5, the bacteria were diluted with MHB (final concentration 2 × 10^5 CFU mL−1) and added to the microplates containing the test compounds (50 µL to each well, final volume: 100 µL). The well-plates were sealed with an adhesive membrane and after 16 h of incubation at 37°C with shaking at 220 rpm the wells were visually inspected for bacterial growth. MIC values reported are based on three technical replicates and defined as the lowest concentration of the compound that prevented visible growth of bacteria. […]

A. baumannii 2018-006 = format: cell-based
Description: as §1, §2, §3

E. coli EQAS MCR-2 = format: cell-based; settings: Ec EQAS MCR-2; broth microdilution (CLSI), MHB, 16 h 37 °C, three technical replicates
Description: as §1, §2, §3

K. pneumoniae ATCC 11228 = format: cell-based
Description: as §1, §2, §3

P. aeruginosa NRZ-03961 = format: cell-based
Description: as §1, §2, §3

K. pneumoniae 2048 = format: cell-based
Description: as §1, §2, §3

A. baumannii ATCC 17978 = format: cell-based
Description: as §1, §2, §3

E. coli ATCC 25922 [1] = format: cell-based
Description: as §1, §2, §3

A. baumannii MDR = format: cell-based
Description: as §1, §2, §3

K. pneumoniae JS-123 = format: cell-based
Description: as §1, §2, §3

E. coli ATCC 25922 MCR-1 = format: cell-based; settings: Ec ATCC 25922 MCR-1; broth microdilution (CLSI), MHB, 16 h 37 °C, three technical replicates
Description: as §1, §2, §3

P. aeruginosa ATCC 27853 = format: cell-based
Description: as §1, §2, §3

A. baumannii ATCC 17961 = format: cell-based
Description: as §1, §2, §3

P. aeruginosa PAO1 = format: cell-based
Description: as §1, §2, §3

P. aeruginosa M-120 = format: cell-based
Description: as §1, §2, §3

S. aureus USA300 = format: cell-based
Description: as §1, §2, §3

[2] = tested on: E. coli MCR-1 (clinical isolate); format: cell-based
Description: as §1, §2, §3

E. coli ATCC 25922 [3] = experiment: Neutropenic mouse thigh infection efficacy study; format: in vivo, mice (ICR); settings: neutropenic mice, E. coli ATCC 25922 thigh infection, 20 mg kg^−1 SC q8h
Description: In vivo tolerability and efficacy studies
Ethical Issues. Animal experiments were performed under UK Home Office Licences P89653310 (tolerability and PK) and PA67E0BAA (thigh efficacy), with local ethical committee clearance.
Animal Strain. Mice used in these studies were supplied by Charles River (Margate UK) and were specific pathogen free. The strain of mice used was ICR (also known as CD1 Mice) which is a well characterized outbred murine strain. Mice (male) were 11-15 g on receipt and were allowed to acclimatise for at least 7 days.
Animal Housing. Mice were housed in sterilised individual ventilated cages exposing the mice at all times to HEPA filtered sterile air. Mice had free access to food and water and had aspen chip bedding (changed at least once weekly). The room temperature was 22°C +/ - 1°C, with a relative humidity of 60% and maximum background noise of 56 dB. Mice were exposed to 12 h light/dark […]
Test compounds. Compound 6 was dissolved in water for injection in which it formed a clear […]
colourless solution. […]
Compound 6 was administered via subcutaneous administration route at 3 8-h […]
The mice used in the tolerability study were naïve and were not immunosuppressed or infected.
Efficacy study. The in vivo efficacy of compound 6 was assessed in a mouse thigh abscess model where both thighs of each mouse were infected with E. coli ATCC 25922
Immunosuppression. […]
Endpoints. One h and 20.5 (planned 25) h post-infection, the clinical condition of all animals was assessed prior to humane euthanasia using pentobarbitone overdose, and the thighs were removed and weighed. Thigh samples were homogenized in 3mL ice cold sterile PBS; the homogenates were quantitatively cultured onto CLED agar and incubated at 37°C for 18 - 24 h before colonies were […]
Data analysis. The data from the culture burdens were analysed using appropriate non-parametric statistical models (Kruskal-Wallis using Conover-Inman to make all pairwise comparisons between groups) with StatsDirect software v. […]

[4] = Ab MDR, broth microdilution (CLSI), MHB, 16 h 37 °C, three technical replicates
[5] = Ec MCR-1, broth microdilution (CLSI), MHB, 16 h 37 °C, three technical replicates

| Compound | MIC (K. pneumoniae ATCC 13883; ATCC 13883, 16 h) | MIC (A. baumannii 2018-006; 2018-006, 16 h) | MIC (E. coli EQAS MCR-2) | MIC (K. pneumoniae ATCC 11228; ATCC 11228, 16 h) | MIC (P. aeruginosa NRZ-03961; NRZ-03961, 16 h) | MIC (K. pneumoniae 2048; 2048, 16 h) | MIC (A. baumannii ATCC 17978; ATCC 17978, 16 h) | MIC (E. coli ATCC 25922 [1]; ATCC 25922, 16 h) | MIC (A. baumannii MDR; [4]) | MIC (K. pneumoniae JS-123; JS-123, 16 h) | MIC (E. coli ATCC 25922 MCR-1) | MIC (P. aeruginosa ATCC 27853; ATCC 27853, 16 h) | MIC (A. baumannii ATCC 17961; ATCC 17961, 16 h) | MIC (P. aeruginosa PAO1; PAO1, 16 h) | MIC (P. aeruginosa M-120; M-120, 16 h) | MIC (S. aureus USA300; USA300, 16 h) | MIC [2, 5] | further results |
| --- | --- | --- | --- | --- | --- | --- | --- | --- | --- | --- | --- | --- | --- | --- | --- | --- | --- | --- |
| CC[C@H](C)[C@@H]1NC(=O)[C@@H](NC(=O)[C@H](Cc2c[nH]c3ccccc23)NC(=O)[C@@H](CCCN)NC(=O)CNC(=O)[C@H](CCCN)NC(=O)[C@@H](CCCN)NC(=O)[C@@H](Cc2c[nH]c3ccccc23)NC(=O)[C@@H](Cc2ccc(O)cc2)NC(=O)[C@@H](CO)NC(=O)CCCCCC(C)C)[C@@H](C)NC(=O)CNC(=O)CNC(=O)[C@H](CC(N)=O)NC1=O [MeDap9-Lat (8), MeDap9-laterocidine] | 1 to 2 µg/mL | 4 µg/mL (≈ 2.49 µM) | 0.5 µg/mL (≈ 0.312 µM) | 1 to 2 µg/mL | 2 µg/mL (≈ 1.25 µM) | 2 µg/mL (≈ 1.25 µM) | 2 µg/mL (≈ 1.25 µM) | 1 µg/mL (≈ 0.623 µM) | 4 µg/mL (≈ 2.49 µM) | 0.5 µg/mL (≈ 0.312 µM) | 1 µg/mL (≈ 0.623 µM) | 0.5 µg/mL (≈ 0.312 µM) | 2 µg/mL (≈ 1.25 µM) | 2 µg/mL (≈ 1.25 µM) | 1 µg/mL (≈ 0.623 µM) | 32 µg/mL (≈ 20 µM) | 0.5 µg/mL (≈ 0.312 µM) |  |
| CCC(C)CCC(=O)N[C@H](CC(N)=O)C(=O)N[C@H](Cc1ccc(O)cc1)C(=O)N[C@H](Cc1c[nH]c2ccccc12)C(=O)N[C@H](CCCN)C(=O)N[C@@H](CCCN)C(=O)NCC(=O)N[C@H](CCCN)C(=O)N[C@@H](Cc1c[nH]c2ccccc12)C(=O)N[C@H]1COC(=O)[C@H](CO)NC(=O)CNC(=O)[C@H]([C@@H](C)CC)NC1=O (stereo partly drawn) [Ser9-Brev (3), Ser9-Brevicidine] ({Hexanoyl(4ξ-Me)}-[dN][dY][dW][dOrn][Orn]G[dOrn]WSIGS; ester 9-C) | 2 µg/mL (≈ 1.33 µM) | 2 µg/mL (≈ 1.33 µM) | 4 to 8 µg/mL | 2 µg/mL (≈ 1.33 µM) | 4 µg/mL (≈ 2.66 µM) | 4 µg/mL (≈ 2.66 µM) | 2 µg/mL (≈ 1.33 µM) | 4 µg/mL (≈ 2.66 µM) |  | 2 µg/mL (≈ 1.33 µM) | 4 µg/mL (≈ 2.66 µM) | 1 µg/mL (≈ 0.664 µM) | 0.5 to 1 µg/mL | 2 to 4 µg/mL | 2 µg/mL (≈ 1.33 µM) | >64 µg/mL |  | MIC (A. baumannii MDR; MDR, 16 h): 1 to 2 µg/mL; MIC ([2]; MCR-1 (clinical isolate, 16 h)): 2 µg/mL (≈ 1.33 µM) |
| polymyxin B [PolyB, reference compound] |  |  | 4 µg/mL |  |  |  |  |  | <0.25 µg/mL |  |  |  |  |  |  |  | 2 to 4 µg/mL | MIC (K. pneumoniae ATCC 13883; Kp ATCC 13883, broth microdilution (CLSI), MHB, 16 h 37 °C, three technical replicates): 0.25 µg/mL; MIC (A. baumannii 2018-006; Ab 2018-006, broth microdilution (CLSI), MHB, 16 h 37 °C, three technical replicates): <0.25 µg/mL; MIC (K. pneumoniae ATCC 11228; Kp ATCC 11228, broth microdilution (CLSI), MHB, 16 h 37 °C, three technical replicates): <0.25 µg/mL; MIC (P. aeruginosa NRZ-03961; Pa NRZ-03961, broth microdilution (CLSI), MHB, 16 h 37 °C, three technical replicates): 0.25 to 0.5 µg/mL; MIC (K. pneumoniae 2048; Kp 2048, broth microdilution (CLSI), MHB, 16 h 37 °C, three technical replicates): 0.5 to 1 µg/mL; MIC (A. baumannii ATCC 17978; Ab ATCC 17978, broth microdilution (CLSI), MHB, 16 h 37 °C, three technical replicates): <0.25 µg/mL; MIC (E. coli ATCC 25922 [1]; Ec ATCC 25922, broth microdilution (CLSI), MHB, 2 × 10^5 CFU/mL, 16 h 37 °C, visual read-out, three technical replicates): 0.5 µg/mL; MIC (K. pneumoniae JS-123; Kp JS-123, broth microdilution (CLSI), MHB, 16 h 37 °C, three technical replicates): <0.25 µg/mL; MIC (P. aeruginosa ATCC 27853; Pa ATCC 27853, broth microdilution (CLSI), MHB, 16 h 37 °C, three technical replicates): <0.25 µg/mL; MIC (A. baumannii ATCC 17961; Ab ATCC 17961, broth microdilution (CLSI), MHB, 16 h 37 °C, three technical replicates): <0.25 µg/mL; MIC (P. aeruginosa PAO1; Pa PAO1, broth microdilution (CLSI), MHB, 16 h 37 °C, three technical replicates): 0.25 to 0.5 µg/mL; MIC (P. aeruginosa M-120; Pa M-120, broth microdilution (CLSI), MHB, 16 h 37 °C, three technical replicates): <0.25 µg/mL; MIC (S. aureus USA300; Sa USA300, broth microdilution (CLSI), MHB, 16 h 37 °C, three technical replicates): 64 µg/mL; antibacterial effect in thigh infection, compared with Dap9-Lat (6) at 40 mg kg^−1 (E. coli ATCC 25922 [3]): comparable |
